In patent publication EP4667483A1, “HUMAN TRANSFERRIN RECEPTOR-BINDING PEPTIDE” (JCR Pharmaceuticals Co., Ltd., priority 2023, dated 2024) one finds Kd data, which are given here for eleven compounds.

For assay [1], the target named is T1, human transferrin receptor (hTfR) (Homo sapiens, UniProt P02786). As to the kind of experiment: SPR measurement under pH 6.0 conditions (Biacore T200, NTA chip, immobilized hTfR). Type of assay: binding. The note with it: SPR, pH 6.0; peptide with the linker named in the table; read-out: hTfR SPR pH6.0 KD.
T1 sequence (P02786 whole entry): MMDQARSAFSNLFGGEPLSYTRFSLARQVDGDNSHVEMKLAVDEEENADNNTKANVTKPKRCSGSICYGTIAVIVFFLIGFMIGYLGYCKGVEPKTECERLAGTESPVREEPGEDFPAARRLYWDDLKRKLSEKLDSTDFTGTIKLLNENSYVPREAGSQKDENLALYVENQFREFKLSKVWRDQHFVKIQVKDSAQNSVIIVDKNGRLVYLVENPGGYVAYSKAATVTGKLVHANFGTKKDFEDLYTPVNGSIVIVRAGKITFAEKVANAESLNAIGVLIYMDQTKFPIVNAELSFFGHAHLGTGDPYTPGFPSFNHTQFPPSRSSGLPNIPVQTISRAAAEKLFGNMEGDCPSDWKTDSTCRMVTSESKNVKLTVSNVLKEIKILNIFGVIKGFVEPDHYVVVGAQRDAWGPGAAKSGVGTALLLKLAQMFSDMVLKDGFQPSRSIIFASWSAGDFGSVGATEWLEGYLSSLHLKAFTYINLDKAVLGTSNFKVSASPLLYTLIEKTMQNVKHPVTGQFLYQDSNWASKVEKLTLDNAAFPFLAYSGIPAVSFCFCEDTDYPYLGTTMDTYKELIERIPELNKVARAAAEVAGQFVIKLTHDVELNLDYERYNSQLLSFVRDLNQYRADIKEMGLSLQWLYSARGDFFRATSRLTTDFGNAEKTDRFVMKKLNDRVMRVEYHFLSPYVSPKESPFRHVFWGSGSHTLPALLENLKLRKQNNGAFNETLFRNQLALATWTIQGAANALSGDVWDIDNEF
The target of assay [2] is T1, human transferrin receptor (hTfR). Description: SPR measurement under pH 7.4 conditions (Biacore T200, CM3 chip, hTfR captured by His Tag antibody). Particulars: SPR, pH 7.4; peptide with the linker named in the table; read-out: hTfR SPR pH7.4 KD. It is filed as binding. For orientation: Surface plasmon resonance follows binding to a sensor surface in real time, without labels.

Numbered stars: 1 amine (or outer) side, 2 acyl side, 3 side chain; on linkers, the order of the positions; unused ones are H or OH. Bridge positions count the residues as written; N and C are the ends. Square brackets hold non-standard residues; d marks the D form. Peptide text beside a SMILES is read from it. * marks the point of attachment. Trp(1-CH2COOH) = N[C@@H](Cc1cn(CC(=O)O)c2ccccc12)C(=O)O; Ala(2-NH2-4-pyridyl) = Nc1cc(C[C@H](N)C(=O)O)ccn1; Phe(3-COOH) = N[C@@H](Cc1cccc(C(=O)O)c1)C(=O)O; NMePhe(3-OMe) = CN[C@@H](Cc1cccc(OC)c1)C(=O)O; NMePhe(3-Cl) = CN[C@@H](Cc1cccc(Cl)c1)C(=O)O; 3Pal(6-OMe) = COc1ccc(C[C@H](N)C(=O)O)cn1; X5 = COc1cc(C[C@H](N[*:1])C(=O)[*:2])ccn1; 3Pal(6-NH2) = Nc1ccc(C[C@H](N)C(=O)O)cn1; X3 = Cc1ccc(C[C@H](N[*:1])C(=O)[*:2])cn1; Tyr(3-Me) = Cc1cc(C[C@H](N)C(=O)O)ccc1O; NMe4Pal = CN[C@@H](Cc1ccncc1)C(=O)O; NMeY = CN[C@@H](Cc1ccc(O)cc1)C(=O)O; Nva(3-Et) = CCC(CC)[C@H](N)C(=O)O; 3Pal = N[C@@H](Cc1cccnc1)C(=O)O; PEG4 = NCCOCCOCCOCCOCCC(=O)O; Carboxymethyl = O=C(O)C*

What is called Kd is the equilibrium constant for the complex coming apart.

Consider `CCC(CC)[C@@H]1NC(=O)[C@H](Cc2ccc(OCC(=O)O)cc2)NC(=O)[C@H](Cc2ccc(O)cc2)NC(=O)[C@H](CC(N)=O)NC(=O)[C@H](Cc2cn(CC(=O)O)c3ccccc23)NC(=O)[C@H](C(C)C)NC(=O)[C@H](Cc2cccc(Cl)c2)N(C)C(=O)[C@H](C(C)C)NC(=O)[C@H](C)NC(=O)CSC[C@@H](C(=O)NCCOCCOCCOCCOCCC(N)=O)NC(=O)[C@H](Cc2cccc(Cl)c2)N(C)C(=O)[C@H](Cc2cccc(C(=O)O)c2)NC(=O)[C@H](CCCNC(=N)N)NC(=O)[C@H](CCC(N)=O)NC(=O)[C@H]([C@@H](C)CC)NC1=O` [compound 94] ({CH2CO}-AV[NMePhe(3-Cl)]V[Trp(1-CH2COOH)]NYY(Carboxymethyl)[Nva(3-Et)]IQR[Phe(3-COOH)][NMePhe(3-Cl)]C[PEG4]-NH2; thioether N-15), for which the values for the equilibrium dissociation constant (Kd) in assay [1] and in assay [2] were 0.062 µM and 0.012 µM, respectively.
The like results for `CCC(CC)[C@@H]1NC(=O)[C@H](Cc2ccc(OCC(=O)O)cc2)NC(=O)[C@H](Cc2ccc(O)cc2)NC(=O)[C@H](CC(N)=O)NC(=O)[C@H](Cc2cn(CC(=O)O)c3ccccc23)NC(=O)[C@H](C(C)C)NC(=O)[C@H](Cc2cccc(Cl)c2)N(C)C(=O)[C@H](C(C)C)NC(=O)[C@H](C)NC(=O)CSC[C@@H](C(=O)NCCOCCOCCOCCOCCC(N)=O)NC(=O)[C@H](Cc2cccc(OC)c2)N(C)C(=O)[C@H](Cc2cccc(C(=O)O)c2)NC(=O)[C@H](CCCNC(=N)N)NC(=O)[C@H](CCC(N)=O)NC(=O)[C@H]([C@@H](C)CC)NC1=O` [compound 95] ({CH2CO}-AV[NMePhe(3-Cl)]V[Trp(1-CH2COOH)]NYY(Carboxymethyl)[Nva(3-Et)]IQR[Phe(3-COOH)][NMePhe(3-OMe)]C[PEG4]-NH2; thioether N-15) were, in that order, 0.0679 µM and 0.0106 µM.
The corresponding values for `CCC(CC)[C@@H]1NC(=O)[C@H](Cc2ccc(OCC(=O)O)cc2)NC(=O)[C@H](Cc2ccc(O)cc2)NC(=O)[C@H](CC(N)=O)NC(=O)[C@H](Cc2cn(CC(=O)O)c3ccccc23)NC(=O)[C@H](C(C)C)NC(=O)[C@H](Cc2cccc(Cl)c2)N(C)C(=O)[C@H](C(C)C)NC(=O)[C@H](C)NC(=O)CSC[C@@H](C(=O)NCCOCCOCCOCCOCCC(N)=O)NC(=O)[C@H](Cc2ccncc2)N(C)C(=O)[C@H](Cc2cccc(C(=O)O)c2)NC(=O)[C@H](CCCNC(=N)N)NC(=O)[C@H](CCC(N)=O)NC(=O)[C@H]([C@@H](C)CC)NC1=O` [compound 96] ({CH2CO}-AV[NMePhe(3-Cl)]V[Trp(1-CH2COOH)]NYY(Carboxymethyl)[Nva(3-Et)]IQR[Phe(3-COOH)][NMe4Pal]C[PEG4]-NH2; thioether N-15) are 0.0919 µM and 0.0182 µM.
The corresponding values for `CCC(CC)[C@@H]1NC(=O)[C@H](Cc2ccc(OCC(=O)O)cc2)NC(=O)[C@H](Cc2ccc(O)cc2)NC(=O)[C@H](CC(N)=O)NC(=O)[C@H](Cc2cn(CC(=O)O)c3ccccc23)NC(=O)[C@H](C(C)C)NC(=O)[C@H](Cc2cccc(Cl)c2)N(C)C(=O)[C@H](C(C)C)NC(=O)[C@H](C)NC(=O)CSC[C@@H](C(=O)NCCOCCOCCOCCOCCC(N)=O)NC(=O)[C@H](Cc2ccc(O)cc2)N(C)C(=O)[C@H](Cc2cccc(C(=O)O)c2)NC(=O)[C@H](Cc2c[nH]cn2)NC(=O)[C@H](CCC(N)=O)NC(=O)[C@H]([C@@H](C)CC)NC1=O` [compound 98] ({CH2CO}-AV[NMePhe(3-Cl)]V[Trp(1-CH2COOH)]NYY(Carboxymethyl)[Nva(3-Et)]IQH[Phe(3-COOH)][NMeY]C[PEG4]-NH2; thioether N-15) are 0.145 µM and 0.0206 µM.
With `CCC(CC)[C@@H]1NC(=O)[C@H](Cc2ccc(OCC(=O)O)cc2)NC(=O)[C@H](Cc2ccc(O)cc2)NC(=O)[C@H](CC(N)=O)NC(=O)[C@H](Cc2cn(CC(=O)O)c3ccccc23)NC(=O)[C@H](C(C)C)NC(=O)[C@H](Cc2cccc(Cl)c2)N(C)C(=O)[C@H](C(C)C)NC(=O)[C@H](C)NC(=O)CSC[C@@H](C(=O)NCCOCCOCCOCCOCCC(N)=O)NC(=O)[C@H](Cc2ccc(O)cc2)N(C)C(=O)[C@H](Cc2ccc(O)c(C)c2)NC(=O)[C@H](CCCNC(=N)N)NC(=O)[C@H](CCC(N)=O)NC(=O)[C@H]([C@@H](C)CC)NC1=O` [compound 99] ({CH2CO}-AV[NMePhe(3-Cl)]V[Trp(1-CH2COOH)]NYY(Carboxymethyl)[Nva(3-Et)]IQR[Tyr(3-Me)][NMeY]C[PEG4]-NH2; thioether N-15), the Kd in assay [1] is 0.0562 µM; in assay [2], 0.00908 µM.
Consider `CCC(CC)[C@@H]1NC(=O)[C@H](Cc2ccc(OCC(=O)O)cc2)NC(=O)[C@H](Cc2ccc(O)cc2)NC(=O)[C@H](CC(N)=O)NC(=O)[C@H](Cc2cn(CC(=O)O)c3ccccc23)NC(=O)[C@H](C(C)C)NC(=O)[C@H](Cc2cccc(Cl)c2)N(C)C(=O)[C@H](C(C)C)NC(=O)[C@H](C)NC(=O)CSC[C@@H](C(=O)NCCOCCOCCOCCOCCC(N)=O)NC(=O)[C@H](Cc2ccc(O)cc2)N(C)C(=O)[C@H](Cc2ccc(C)nc2)NC(=O)[C@H](CCCNC(=N)N)NC(=O)[C@H](CCC(N)=O)NC(=O)[C@H]([C@@H](C)CC)NC1=O` [compound 100] ({CH2CO}-AV[NMePhe(3-Cl)]V[Trp(1-CH2COOH)]NYY(Carboxymethyl)[Nva(3-Et)]IQR[X3][NMeY]C[PEG4]-NH2; thioether N-15), for which the figures for the dissociation constant Kd in assay [1] and in assay [2] were 0.113 µM and 0.0127 µM, respectively.
Turning to `CCC(CC)[C@@H]1NC(=O)[C@H](Cc2ccc(OCC(=O)O)cc2)NC(=O)[C@H](Cc2ccc(O)cc2)NC(=O)[C@H](CC(N)=O)NC(=O)[C@H](Cc2cn(CC(=O)O)c3ccccc23)NC(=O)[C@H](C(C)C)NC(=O)[C@H](Cc2cccc(Cl)c2)N(C)C(=O)[C@H](C(C)C)NC(=O)[C@H](C)NC(=O)CSC[C@@H](C(=O)NCCOCCOCCOCCOCCC(N)=O)NC(=O)[C@H](Cc2ccc(O)cc2)N(C)C(=O)[C@H](Cc2ccc(OC)nc2)NC(=O)[C@H](CCCNC(=N)N)NC(=O)[C@H](CCC(N)=O)NC(=O)[C@H]([C@@H](C)CC)NC1=O` [compound 101] ({CH2CO}-AV[NMePhe(3-Cl)]V[Trp(1-CH2COOH)]NYY(Carboxymethyl)[Nva(3-Et)]IQR[3Pal(6-OMe)][NMeY]C[PEG4]-NH2; thioether N-15), the Kd in assay [1] was 0.0667 µM; in assay [2] it was 0.00863 µM.
The corresponding values for `CCC(CC)[C@@H]1NC(=O)[C@H](Cc2ccc(OCC(=O)O)cc2)NC(=O)[C@H](Cc2ccc(O)cc2)NC(=O)[C@H](CC(N)=O)NC(=O)[C@H](Cc2cn(CC(=O)O)c3ccccc23)NC(=O)[C@H](C(C)C)NC(=O)[C@H](Cc2cccc(Cl)c2)N(C)C(=O)[C@H](C(C)C)NC(=O)[C@H](C)NC(=O)CSC[C@@H](C(=O)NCCOCCOCCOCCOCCC(N)=O)NC(=O)[C@H](Cc2ccc(O)cc2)N(C)C(=O)[C@H](Cc2ccc(N)nc2)NC(=O)[C@H](CCCNC(=N)N)NC(=O)[C@H](CCC(N)=O)NC(=O)[C@H]([C@@H](C)CC)NC1=O` [compound 102] ({CH2CO}-AV[NMePhe(3-Cl)]V[Trp(1-CH2COOH)]NYY(Carboxymethyl)[Nva(3-Et)]IQR[3Pal(6-NH2)][NMeY]C[PEG4]-NH2; thioether N-15) are 0.0764 µM and 0.00981 µM.
The corresponding values for `CCC(CC)[C@@H]1NC(=O)[C@H](Cc2ccc(OCC(=O)O)cc2)NC(=O)[C@H](Cc2ccc(O)cc2)NC(=O)[C@H](CC(N)=O)NC(=O)[C@H](Cc2cn(CC(=O)O)c3ccccc23)NC(=O)[C@H](C(C)C)NC(=O)[C@H](Cc2cccc(Cl)c2)N(C)C(=O)[C@H](C(C)C)NC(=O)[C@H](C)NC(=O)CSC[C@@H](C(=O)NCCOCCOCCOCCOCCC(N)=O)NC(=O)[C@H](Cc2ccc(O)cc2)N(C)C(=O)[C@H](Cc2ccnc(OC)c2)NC(=O)[C@H](CCCNC(=N)N)NC(=O)[C@H](CCC(N)=O)NC(=O)[C@H]([C@@H](C)CC)NC1=O` [compound 103] ({CH2CO}-AV[NMePhe(3-Cl)]V[Trp(1-CH2COOH)]NYY(Carboxymethyl)[Nva(3-Et)]IQR[X5][NMeY]C[PEG4]-NH2; thioether N-15) are 0.095 µM and 0.0115 µM.
For `CCC(CC)[C@@H]1NC(=O)[C@H](Cc2ccc(OCC(=O)O)cc2)NC(=O)[C@H](Cc2ccc(O)cc2)NC(=O)[C@H](CC(N)=O)NC(=O)[C@H](Cc2cn(CC(=O)O)c3ccccc23)NC(=O)[C@H](C(C)C)NC(=O)[C@H](Cc2cccc(Cl)c2)N(C)C(=O)[C@H](C(C)C)NC(=O)[C@H](C)NC(=O)CSC[C@@H](C(=O)NCCOCCOCCOCCOCCC(N)=O)NC(=O)[C@H](Cc2ccc(O)cc2)N(C)C(=O)[C@H](Cc2ccnc(N)c2)NC(=O)[C@H](CCCNC(=N)N)NC(=O)[C@H](CCC(N)=O)NC(=O)[C@H]([C@@H](C)CC)NC1=O` [compound 104] ({CH2CO}-AV[NMePhe(3-Cl)]V[Trp(1-CH2COOH)]NYY(Carboxymethyl)[Nva(3-Et)]IQR[Ala(2-NH2-4-pyridyl)][NMeY]C[PEG4]-NH2; thioether N-15), the Kd in assay [1] is 0.0782 µM; in assay [2], 0.0107 µM.
The corresponding values for `CCC(CC)[C@@H]1NC(=O)[C@H](Cc2ccc(OCC(=O)O)cc2)NC(=O)[C@H](Cc2ccc(O)cc2)NC(=O)[C@H](CC(N)=O)NC(=O)[C@H](Cc2cn(CC(=O)O)c3ccccc23)NC(=O)[C@H](C(C)C)NC(=O)[C@H](Cc2cccc(Cl)c2)N(C)C(=O)[C@H](C(C)C)NC(=O)[C@H](C)NC(=O)CSC[C@@H](C(=O)NCCOCCOCCOCCOCCC(N)=O)NC(=O)[C@H](Cc2ccc(O)cc2)N(C)C(=O)[C@H](Cc2cccnc2)NC(=O)[C@H](CCCNC(=N)N)NC(=O)[C@H](CCC(N)=O)NC(=O)[C@H]([C@@H](C)CC)NC1=O` [compound 105] ({CH2CO}-AV[NMePhe(3-Cl)]V[Trp(1-CH2COOH)]NYY(Carboxymethyl)[Nva(3-Et)]IQR[3Pal][NMeY]C[PEG4]-NH2; thioether N-15) are 0.0679 µM and 0.0106 µM.
